Experimental data as given in PMC9525273 (Nature Communications, 2022).
Several values for one entry are separate records, joined by “and”; a condition that tells them apart may be missing. Equal entries are not always repeated. Where two headings read alike, the source gives them in different places.

Experiments:
[1] = target: T1, PfATP4^WT (membranes from Dd2-Polδ parasites) (Plasmodium falciparum, UniProt A0A143ZZK9); experiment: Membrane ATPase assay, ATP4-associated (Na+-dependent) ATPase activity; type: biochemical; conditions: for PfATP4-associated ATPase activity (% of control): Dd2-Polδ
T1 sequence (A0A143ZZK9 1-1264): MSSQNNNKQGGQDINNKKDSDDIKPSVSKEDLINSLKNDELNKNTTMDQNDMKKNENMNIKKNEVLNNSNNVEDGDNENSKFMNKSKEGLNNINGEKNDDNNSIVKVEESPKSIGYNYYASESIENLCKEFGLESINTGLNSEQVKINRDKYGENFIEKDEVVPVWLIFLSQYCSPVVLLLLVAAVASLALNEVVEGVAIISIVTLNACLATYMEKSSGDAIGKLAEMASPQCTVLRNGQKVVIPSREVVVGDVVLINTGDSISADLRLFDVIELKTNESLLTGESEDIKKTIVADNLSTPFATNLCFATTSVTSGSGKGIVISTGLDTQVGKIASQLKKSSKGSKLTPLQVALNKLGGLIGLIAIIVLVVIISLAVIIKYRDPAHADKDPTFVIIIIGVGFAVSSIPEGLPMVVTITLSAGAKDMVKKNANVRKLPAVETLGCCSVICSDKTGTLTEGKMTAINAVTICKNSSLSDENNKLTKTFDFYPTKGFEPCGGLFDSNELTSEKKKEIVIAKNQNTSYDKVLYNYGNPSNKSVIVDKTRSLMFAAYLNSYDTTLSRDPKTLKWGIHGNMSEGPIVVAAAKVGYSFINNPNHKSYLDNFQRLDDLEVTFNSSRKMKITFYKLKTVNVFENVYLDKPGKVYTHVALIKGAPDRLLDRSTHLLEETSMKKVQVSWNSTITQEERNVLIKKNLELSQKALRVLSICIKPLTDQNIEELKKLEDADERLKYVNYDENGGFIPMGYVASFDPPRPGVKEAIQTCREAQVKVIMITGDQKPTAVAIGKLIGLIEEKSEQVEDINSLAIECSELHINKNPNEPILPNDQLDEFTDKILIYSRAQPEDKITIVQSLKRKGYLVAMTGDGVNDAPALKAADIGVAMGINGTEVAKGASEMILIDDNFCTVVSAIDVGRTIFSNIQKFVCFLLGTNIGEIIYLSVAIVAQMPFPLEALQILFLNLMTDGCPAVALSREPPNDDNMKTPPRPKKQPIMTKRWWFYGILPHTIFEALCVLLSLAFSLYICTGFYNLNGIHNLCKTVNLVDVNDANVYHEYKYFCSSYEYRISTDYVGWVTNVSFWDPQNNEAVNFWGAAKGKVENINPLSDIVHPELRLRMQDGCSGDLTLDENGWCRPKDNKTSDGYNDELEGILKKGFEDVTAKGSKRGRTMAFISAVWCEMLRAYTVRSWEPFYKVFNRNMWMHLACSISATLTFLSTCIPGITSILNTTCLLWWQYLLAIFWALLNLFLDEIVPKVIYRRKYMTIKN
Method: Membranes from isolated P. falciparum or extracellular T. gondii parasites were prepared by lysing parasites in ice-cold deionized water containing a 1:500 dilution of Protease Inhibitor Cocktail Set III (Merck Millipore), then washing the membrane preparation three times in ice-cold deionized water (with protease inhibitors present for the first two washes)[15]. Protein concentrations in the membrane preparations were measured using a Bradford assay. The PiColorLock Gold Phosphate Detection System (Innova Biosciences) was used to measure the production of Pi from hydrolysis of ATP[15]. Membrane preparations were diluted in either a high Na^+ solution (yielding final conditions in the reactions of 150 mM NaCl, 20 mM KCl, 2 mM MgCl2, 50 mM Tris, pH 7.2) or a Na^+-free solution (yielding final conditions of 150 mM choline chloride, 20 mM KCl, 2 mM MgCl2, 50 mM Tris, pH 7.2) to achieve a total protein concentration of 50 μg/mL. […] The reactions were performed at 37 °C, and were initiated by the addition of 1 mM ATP (Na2ATP۰3H2O; MP Biomedicals) and terminated 10 min later by adding 100 μL of reaction mixture (in duplicate) to 25 μL “Gold mix” in a 96-well plate. “Stabiliser” was added 3 min later, and the plates incubated at room temperature in the dark for 60 min before measuring absorbance at 635 nm. Background values (averaged from wells containing all components, but to which ATP was not added until after the membrane was exposed to Gold mix) were subtracted from the data. For each treatment, the ATPase activity associated with the (Na^+-dependent) PfATP4 and TgATP4 proteins was calculated by subtracting data obtained in the low Na^+ condition (containing only the 2 mM Na^+ introduced on addition of 1 mM Na2ATP) from that obtained in the high Na^+ condition.

NF54^G358S-2 parasites = experiment: P. falciparum proliferation assay (72 h, flow cytometry, SYBR Green I/MitoTracker); type: cell-based, Plasmodium falciparum; conditions: for FC (IC50) / FC (IC90): NF54G358S-2 compared to NF54WT
Method: (§1) For the NF54-based lines and Dd2-B2-PfATP4^G358S and its parent, assays were initiated with cultures containing predominantly ring-stage parasites with a parasitaemia of 0.3% and a haematocrit of 1%. All assays using NF54 were performed in culture media containing 10% O + human serum. The duration of the assays was 72 h and the concentration of DMSO was <0.5% (v/v). Serial dilutions of the test compounds were performed using a Tecan D300e digital dispenser, with parasite cultures added manually. Parasite survival was assessed by flow cytometry on an Intellicyt iQue3 (Essen Bioscience), with 1× SYBR Green I (Invitrogen) and 200 nM MitoTracker Deep Red FM (Invitrogen) used to stain the nucleus and the mitochondria in live parasites, respectively. The gating strategy used to quantify parasite survival, performed using FlowJo version 10 (FlowJo LLC.), is illustrated in Supplementary Fig. 9. IC50 and IC90 values were calculated by linear interpolation of the dose-response data.

NF54^G358S-1 parasites = experiment: as above; type: cell-based, Plasmodium falciparum; conditions: for FC (IC50) / FC (IC90): NF54G358S-1 compared to NF54WT
Method: as §1

[2] = NF54G358S-2 parasites, individual experiments, read-out: IC90 values
[3] = Plasmodium falciparum, NF54, NF54G358S-2, 10% human serum, read-out: IC50 ± SEM
[4] = Plasmodium falciparum, NF54, NF54G358S-2 parasites, individual experiments, read-out: IC90 values
[5] = Plasmodium falciparum, NF54, NF54G358S-2 parasites, mean of the experiments, read-out: IC90 values, MEAN
[6] = NF54G358S-1 parasites, individual experiments, read-out: IC90 values
[7] = Plasmodium falciparum, NF54, NF54G358S-1 parasites, individual experiments, read-out: IC90 values
[8] = Plasmodium falciparum, NF54, NF54G358S-1 parasites, mean of the experiments, read-out: IC90 values, MEAN

SMILES: N#Cc1cc(NC(=O)[C@H]2c3ccccc3C(=O)N(CC(F)(F)F)[C@@H]2c2cccnc2)ccc1F [(+)-SJ733]
- IC50 for inhibition of ATP4-associated ATPase activity, MEAN ([1]; Dd2-Polδ membranes, MEAN, source data of Table 1 (nM there)): 5.23
- IC50 for ATP4-associated ATPase activity ([1]; membranes from Dd2-Polδ, mean ± SEM): 5.2 ± 2.3 (3) nM
- IC50 (NF54^G358S-2 parasites; NF54G358S-2, single experiments, source data of Fig. 2 (nM in Supplementary Table 5), read-out: IC50 values): 11600 nM and 13800 nM and 13500 nM
- FC (IC50) (NF54^G358S-2 parasites): 138.1 fold
- FC (IC90) (NF54^G358S-2 parasites): 152.9 fold
- IC90 (NF54^G358S-2 parasites; [2]): 25.5 µM and 23.3 µM and 23.8 µM
- IC50 (NF54^G358S-2 parasites; [3]): 13000 ± 480 nM
- IC90 (NF54^G358S-2 parasites; Plasmodium falciparum, NF54, NF54G358S-2, 10% human serum, read-out: IC90 ± SEM): 25 ± 0.892 µM
- IC50 (NF54^G358S-2 parasites; Plasmodium falciparum, NF54, NF54G358S-2, MEAN, source data of Fig. 2, read-out: IC50 values, MEAN): 13000 nM
- IC50 (NF54^G358S-2 parasites; Plasmodium falciparum, NF54, NF54G358S-2, single experiments, source data of Fig. 2 (nM in Supplementary Table 5), read-out: IC50 values): 12900 nM
- IC90 (NF54^G358S-2 parasites; [4]): 27.3 µM
- IC90 (NF54^G358S-2 parasites; [5]): 25 µM
- IC50 (NF54^G358S-1 parasites; NF54G358S-1, single experiments, source data of Fig. 2 (nM in Supplementary Table 5), read-out: IC50 values): 12600 nM and 15300 nM and 15000 nM
- FC (IC50) (NF54^G358S-1 parasites): 148.8 fold
- FC (IC90) (NF54^G358S-1 parasites): 155.4 fold
- IC90 (NF54^G358S-1 parasites; [6]): 25.9 µM and 24.2 µM and 24.3 µM
- IC50 (NF54^G358S-1 parasites; Plasmodium falciparum, NF54, NF54G358S-1, 10% human serum, read-out: IC50 ± SEM): 14000 ± 683 nM
- IC90 (NF54^G358S-1 parasites; Plasmodium falciparum, NF54, NF54G358S-1, 10% human serum, read-out: IC90 ± SEM): 25.4 ± 0.727 µM
- IC50 (NF54^G358S-1 parasites; Plasmodium falciparum, NF54, NF54G358S-1, MEAN, source data of Fig. 2, read-out: IC50 values, MEAN): 14000 nM
- IC50 (NF54^G358S-1 parasites; Plasmodium falciparum, NF54, NF54G358S-1, single experiments, source data of Fig. 2 (nM in Supplementary Table 5), read-out: IC50 values): 13000 nM
- IC90 (NF54^G358S-1 parasites; [7]): 27.2 µM
- IC90 (NF54^G358S-1 parasites; [8]): 25.4 µM

SMILES: N#Cc1cc(NC(=O)[C@H]2c3ccccc3C(=O)N(CC(F)(F)F)[C@@H]2c2cccnc2)ccc1F [(+)SJ733]
- PfATP4-associated ATPase activity (% of control) ([1]; [(+)SJ733] 0.122 nM, MEAN): 74.2 % of control
- PfATP4-associated ATPase activity (% of control) ([1]; [(+)SJ733] 0.122 nM, single experiments, 0.000122 µM): 57.4 % of control and 86.4 % of control and 78.7 % of control
- PfATP4-associated ATPase activity (% of control) ([1]; [(+)SJ733] 0.244 nM, MEAN): 71.3 % of control
- PfATP4-associated ATPase activity (% of control) ([1]; [(+)SJ733] 0.244 nM, single experiments, 0.000244 µM): 51.9 % of control and 74.9 % of control and 87.1 % of control
- PfATP4-associated ATPase activity (% of control) ([1]; [(+)SJ733] 0.5 nM, MEAN): 85.1 % of control
- PfATP4-associated ATPase activity (% of control) ([1]; [(+)SJ733] 1.0 nM, MEAN): 59.1 % of control
- PfATP4-associated ATPase activity (% of control) ([1]; [(+)SJ733] 2.0 nM, MEAN): 64.2 % of control
- PfATP4-associated ATPase activity (% of control) ([1]; [(+)SJ733] 3.9 nM, MEAN): 46.7 % of control
- PfATP4-associated ATPase activity (% of control) ([1]; [(+)SJ733] 7.8 nM, MEAN): 32.8 % of control
- PfATP4-associated ATPase activity (% of control) ([1]; [(+)SJ733] 15.6 nM, MEAN): 21.9 % of control
- PfATP4-associated ATPase activity (% of control) ([1]; [(+)SJ733] 31.3 nM, MEAN): 30.9 % of control
- PfATP4-associated ATPase activity (% of control) ([1]; [(+)SJ733] 62.5 nM, MEAN): 7.7 % of control
- PfATP4-associated ATPase activity (% of control) ([1]; [(+)SJ733] 250 nM, MEAN): 11.2 % of control
- PfATP4-associated ATPase activity (% of control) ([1]; [(+)SJ733] 500 nM, MEAN): -2.6 % of control
- PfATP4-associated ATPase activity (% of control) ([1]; [(+)SJ733] 1000 nM, MEAN): -8.2 % of control
- PfATP4-associated ATPase activity (% of control) ([1]; [(+)SJ733] 2000 nM, MEAN): 7.9 % of control
- PfATP4-associated ATPase activity (% of control) ([1]; [(+)SJ733] 4000 nM, MEAN): -17.1 % of control
- PfATP4-associated ATPase activity (% of control) ([1]; [(+)SJ733] 8000 nM, MEAN): -14.6 % of control

SMILES: C[C@H]1[C@@H](O)O[C@@H]2O[C@@]3(C)CC[C@H]4[C@H](C)CC[C@@H]1[C@@]24OO3 [Dihydroartemisinin]
- FC (IC50) (NF54^G358S-2 parasites): 1.1 fold
- FC (IC90) (NF54^G358S-2 parasites): 1.2 fold
- IC90 (NF54^G358S-2 parasites; [2]): 0.0029 µM and 0.00251 µM and 0.00293 µM
- IC50 (NF54^G358S-2 parasites; [3]): 0.9 ± 0.1 nM
- IC90 (NF54^G358S-2 parasites; [4]): 0.00284 µM
- IC90 (NF54^G358S-2 parasites; [5]): 0.0028 µM
- IC50 (NF54^G358S-2 parasites; Plasmodium falciparum, NF54, read-out: Dihydroartemisinin IC50 values, NF54G358S-2, MEAN): 0.91 nM
- IC50 (NF54^G358S-2 parasites; read-out: Dihydroartemisinin IC50 values, NF54G358S-2, single experiments): 0.73 nM
- FC (IC50) (NF54^G358S-1 parasites): 1.1 fold
- FC (IC90) (NF54^G358S-1 parasites): 1.1 fold
- IC90 (NF54^G358S-1 parasites; [6]): 0.00278 µM and 0.00234 µM and 0.00264 µM
- IC90 (NF54^G358S-1 parasites; [7]): 0.00268 µM
- IC90 (NF54^G358S-1 parasites; [8]): 0.0026 µM
- IC50 (NF54^G358S-1 parasites; Plasmodium falciparum, NF54, read-out: Dihydroartemisinin IC50 values, NF54G358S-1, MEAN): 0.9 nM
- IC50 (NF54^G358S-1 parasites; read-out: Dihydroartemisinin IC50 values, NF54G358S-1, single experiments): 0.76 nM and 0.77 nM
